Assay results reported in PubChem BioAssay (NCI).
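At the GI50, growth is halved. TGI: total growth inhibition.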

Assays:
Assay in all cases: growth of human tumour cells (NCI), 384-well format
[1] = tested on: RXF 393 renal
[2] = tested on: HOP-62 NSCLC
[3] = tested on: OVCAR-8 ovarian
[4] = tested on: KM12 colon
[5] = tested on: SF-268 CNS
[6] = tested on: OVCAR-3 ovarian
[7] = tested on: SF-539 CNS
[8] = tested on: TK-10 renal
[9] = tested on: 786-0 renal
[10] = tested on: IGROV1 ovarian
[11] = tested on: CAKI-1 renal
[12] = tested on: MOLT-4 leukemia
[13] = tested on: RPMI-8226 leukemia
[14] = tested on: MALME-3M melanoma
[15] = tested on: U251 glioblastoma
[16] = tested on: MCF7 breast
[17] = tested on: A549 NSCLC
[18] = tested on: OVCAR-5 ovarian
[19] = tested on: OVCAR-4 ovarian
[20] = tested on: PC-3 prostate
[21] = tested on: HS 578T breast
[22] = tested on: SF-295 CNS
[23] = tested on: HOP-92 NSCLC
[24] = tested on: DU-145 prostate
[25] = tested on: CCRF-CEM leukemia
[26] = tested on: SN12C renal
[27] = tested on: COLO 205 colon
[28] = tested on: HL-60(TB) leukemia
[29] = tested on: NCI-H23 lung
[30] = tested on: MDA-MB-468 breast
[31] = tested on: HCT-15 colon
[32] = tested on: NCI/ADR-RES ovarian
[33] = tested on: BT-549 breast
[34] = tested on: SW-620 colon
[35] = tested on: SK-OV-3 ovarian
[36] = tested on: SK-MEL-5 melanoma
[37] = tested on: NCI-H460 NSCLC
[38] = tested on: MDA-MB-231 breast
[39] = tested on: UO-31 renal
[40] = tested on: MDA-MB-435 melanoma
[41] = tested on: NCI-H322M lung
[42] = tested on: K-562 leukemia
[43] = tested on: NCI-H226 lung
[44] = tested on: SNB-75 CNS
[45] = tested on: LOX IMVI melanoma
[46] = tested on: HCT-116 colon
[47] = tested on: A498 renal
[48] = tested on: SR leukemia
[49] = tested on: EKVX NSCLC
[50] = tested on: HCC-2998 colon
[51] = tested on: ACHN renal
[52] = tested on: M14 melanoma
[53] = tested on: SNB-19 CNS
[54] = tested on: NCI-H522 lung
[55] = tested on: HT29 colon

Q: `O=C(Nc1ccncc1)C(=O)c1cn(Cc2ccc(Cl)cc2)c2ccccc12` was tested. Which GI50 [1] did it give?
A: < 0.01 µM

Q: What about the TGI [1] of the same compound?
A: < 0.01 µM

Q: What about the GI50 [2] of the same compound?
A: < 0.01 µM

Q: What about the TGI [2] of the same compound?
A: 24.1 µM

Q: What about the GI50 [3] of the same compound?
A: < 0.01 µM

Q: What about the TGI [3] of the same compound?
A: 14.1 µM

Q: And the GI50 [4]?
A: < 0.01 µM

Q: And the TGI [4]?
A: > 100 µM

Q: What about the GI50 [5] of the same compound?
A: < 0.01 µM

Q: And the TGI [5]?
A: > 100 µM

Q: What about the GI50 [6] of the same compound?
A: < 0.01 µM

Q: And the TGI [6]?
A: < 0.01 µM

Q: What about the GI50 [7] of the same compound?
A: < 0.01 µM

Q: What about the TGI [7] of the same compound?
A: 0.0247 µM

Q: What about the GI50 [8] of the same compound?
A: < 0.01 µM

Q: What about the TGI [8] of the same compound?
A: 72.2 µM

Q: And the GI50 [9]?
A: < 0.01 µM

Q: What about the TGI [9] of the same compound?
A: 2.01 µM

Q: And the GI50 [10]?
A: < 0.01 µM

Q: And the TGI [10]?
A: > 100 µM

Q: And the GI50 [11]?
A: < 0.01 µM

Q: What about the TGI [11] of the same compound?
A: > 100 µM

Q: And the GI50 [12]?
A: < 0.01 µM

Q: And the TGI [12]?
A: < 0.01 µM

Q: And the GI50 [13]?
A: < 0.01 µM

Q: What about the TGI [13] of the same compound?
A: < 0.01 µM

Q: What about the GI50 [14] of the same compound?
A: < 0.01 µM

Q: And the TGI [14]?
A: 23.4 µM

Q: What about the GI50 [15] of the same compound?
A: < 0.01 µM

Q: What about the TGI [15] of the same compound?
A: 1.95 µM

Q: And the GI50 [16]?
A: < 0.01 µM

Q: What about the TGI [16] of the same compound?
A: > 100 µM

Q: What about the GI50 [17] of the same compound?
A: 1.09 µM

Q: What about the TGI [17] of the same compound?
A: > 100 µM

Q: What about the GI50 [18] of the same compound?
A: 0.894 µM

Q: And the TGI [18]?
A: > 100 µM

Q: What about the GI50 [19] of the same compound?
A: 0.023 µM

Q: What about the TGI [19] of the same compound?
A: > 100 µM

Q: And the GI50 [20]?
A: < 0.01 µM

Q: And the TGI [20]?
A: > 100 µM

Q: What about the GI50 [21] of the same compound?
A: < 0.01 µM

Q: And the TGI [21]?
A: < 0.01 µM

Q: What about the GI50 [22] of the same compound?
A: < 0.01 µM

Q: And the TGI [22]?
A: < 0.01 µM

Q: What about the GI50 [23] of the same compound?
A: 0.0104 µM

Q: And the TGI [23]?
A: 34.3 µM

Q: What about the GI50 [24] of the same compound?
A: 0.0208 µM

Q: And the TGI [24]?
A: > 100 µM

Q: What about the GI50 [25] of the same compound?
A: < 0.01 µM

Q: What about the TGI [25] of the same compound?
A: 0.0165 µM

Q: And the GI50 [26]?
A: 0.0173 µM

Q: And the TGI [26]?
A: > 100 µM

Q: And the GI50 [27]?
A: 0.126 µM

Q: What about the TGI [27] of the same compound?
A: 0.353 µM

Q: What about the GI50 [28] of the same compound?
A: < 0.01 µM

Q: And the TGI [28]?
A: < 0.01 µM

Q: And the GI50 [29]?
A: < 0.01 µM

Q: And the TGI [29]?
A: 0.0674 µM

Q: What about the GI50 [30] of the same compound?
A: < 0.01 µM

Q: And the TGI [30]?
A: 0.0208 µM

Q: And the GI50 [31]?
A: < 0.01 µM

Q: What about the TGI [31] of the same compound?
A: > 100 µM

Q: What about the GI50 [32] of the same compound?
A: < 0.01 µM

Q: And the TGI [32]?
A: < 0.01 µM

Q: And the GI50 [33]?
A: < 0.01 µM

Q: And the TGI [33]?
A: > 100 µM

Q: What about the GI50 [34] of the same compound?
A: < 0.01 µM

Q: And the TGI [34]?
A: > 100 µM

Q: And the GI50 [35]?
A: 0.025 µM

Q: And the TGI [35]?
A: > 100 µM

Q: What about the GI50 [36] of the same compound?
A: < 0.01 µM

Q: And the TGI [36]?
A: 0.0116 µM

Q: And the GI50 [37]?
A: < 0.01 µM

Q: What about the TGI [37] of the same compound?
A: 0.0527 µM

Q: And the GI50 [38]?
A: 0.0468 µM

Q: And the TGI [38]?
A: > 100 µM

Q: What about the GI50 [39] of the same compound?
A: < 0.01 µM

Q: And the TGI [39]?
A: > 100 µM

Q: And the GI50 [40]?
A: < 0.01 µM

Q: What about the TGI [40] of the same compound?
A: < 0.01 µM

Q: What about the GI50 [41] of the same compound?
A: 0.0448 µM

Q: And the TGI [41]?
A: > 100 µM

Q: What about the GI50 [42] of the same compound?
A: < 0.01 µM

Q: What about the TGI [42] of the same compound?
A: 0.0119 µM

Q: And the GI50 [43]?
A: < 0.01 µM

Q: And the TGI [43]?
A: 0.787 µM

Q: What about the GI50 [44] of the same compound?
A: < 0.01 µM

Q: What about the TGI [44] of the same compound?
A: 3.23 µM

Q: What about the GI50 [45] of the same compound?
A: < 0.01 µM

Q: What about the TGI [45] of the same compound?
A: > 100 µM

Q: What about the GI50 [46] of the same compound?
A: < 0.01 µM

Q: And the TGI [46]?
A: > 100 µM

Q: What about the GI50 [47] of the same compound?
A: 0.0305 µM

Q: And the TGI [47]?
A: > 100 µM

Q: What about the GI50 [48] of the same compound?
A: < 0.01 µM

Q: And the TGI [48]?
A: < 0.01 µM

Q: And the GI50 [49]?
A: < 0.01 µM

Q: And the TGI [49]?
A: > 100 µM

Q: What about the GI50 [50] of the same compound?
A: < 0.01 µM

Q: What about the TGI [50] of the same compound?
A: 0.377 µM

Q: What about the GI50 [51] of the same compound?
A: < 0.01 µM

Q: And the TGI [51]?
A: > 100 µM

Q: And the GI50 [52]?
A: < 0.01 µM

Q: What about the TGI [52] of the same compound?
A: 0.0368 µM

Q: And the GI50 [53]?
A: 0.0138 µM

Q: What about the TGI [53] of the same compound?
A: > 100 µM

Q: What about the GI50 [54] of the same compound?
A: < 0.01 µM

Q: What about the TGI [54] of the same compound?
A: < 0.01 µM

Q: And the GI50 [55]?
A: < 0.01 µM

Q: And the TGI [55]?
A: > 100 µM
